Assay results taken from US12403153B2, “Nicotinamide mononucleotide derivatives and use thereof in the treatment and prevention of a red blood cell disorder” (Nuvamid SA, priority 2020, dated 2025).

Assays:
Type in all cases: in vivo
[1] = test system: reticulocytes; assay: Reticulocyte counts using Reticount by FACS, blood of treated SCD mice; details: Townes S/S mice, 185 mg/kg/d i.p.
Description: The aim of the present study was to evaluate, the effects of i.p. daily administration of compounds 001, 010 and 011 at 185 mg/kg as modulator of red blood cell sickling and fetal hemoglobin expression in erythroid cells and its potential role in therapy for sickle cell disease on mouse model of SCD. Townes S/S mice on a 129/B6 mixed genetic background. The powders of compounds 001, 010 and 011 (185 mg/kg) were dissolved in vehicle (the solution is used at room temperature for maximum 1 day). A fresh sample for each administration was prepared every day except the week-end (the solution is prepared on Saturday and is used on Saturday and Sunday). In Townes S/S mice, mouse alpha- and beta-globin gene loci are deleted and replaced by human alpha- and beta-globin genes. When carrying two copies of the beta S allele, mice develop a human sickle disease phenotype with sickle-shaped red blood cells are seen in blood smears. Group description: • Group 1: Vehicle (i.p.) • Group 2: compound 001 (185 mg/kg) • Group 3 compound 010 (185 mg/kg) • Group 4: compound 011 (185 mg/kg) Mice were i.p treated with compounds 001, 010 and 011 during all the experiment (D0 to D15) once per day. […] Ex-vivo blood collected were assessed for percentage of F-cells using antibodies against fetal hemoglobin by FACS and reticulocyte counts using reticount by FACS. Red blood cells sickling was assessed under hypoxia.

[2] = test system: F-cells; assay: Percentage of F-cells using antibodies against fetal hemoglobin by FACS, blood of treated SCD mice; details: Townes S/S mice; for effect on proportion of circulating erythroid cells expressing fetal hemoglobin (conclusion): 185 mg/kg i.p. daily D0 to D15
Description: (§1) The aim of the present study was to evaluate, the effects of i.p. daily administration of compounds 001, 010 and 011 at 185 mg/kg as modulator of red blood cell sickling and fetal hemoglobin expression in erythroid cells and its potential role in therapy for sickle cell disease on mouse model of SCD.
(§2) Townes S/S mice on a 129/B6 mixed genetic background.
(§3) The powders of compounds 001, 010 and 011 (185 mg/kg) were dissolved in vehicle (the solution is used at room temperature for maximum 1 day). A fresh sample for each administration was prepared every day except the week-end (the solution is prepared on Saturday and is used on Saturday and Sunday).
(§4) In Townes S/S mice, mouse alpha- and beta-globin gene loci are deleted and replaced by human alpha- and beta-globin genes. When carrying two copies of the beta S allele, mice develop a human sickle disease phenotype with sickle-shaped red blood cells are seen in blood smears.
(§5) Group description: • Group 1: Vehicle (i.p.) • Group 2: compound 001 (185 mg/kg) • Group 3 compound 010 (185 mg/kg) • Group 4: compound 011 (185 mg/kg)
(§6) Mice were i.p treated with compounds 001, 010 and 011 during all the experiment (D0 to D15) once per day. Last injection occurred 24 hours before sacrifice.
(§7) Retro-orbital blood collection was performed at the inclusion D0 and at D5, D10 and D15 through facial vein bleeding.
(§8) Ex-vivo blood collected were assessed for percentage of F-cells using antibodies against fetal hemoglobin by FACS and reticulocyte counts using reticount by FACS. Red blood cells sickling was assessed under hypoxia.

[3] = test system: Townes S/S mice; assay: Hemoglobin concentration in blood of SCD-model mice; details: for effect on hemoglobin concentration in blood: i.p. once per day D0 to D15 (compound 001 185 mg/kg, L-Gln 180 mg/kg), under normoxia and hypoxia, vs vehicle or L-Gln
Description: (§9) The purpose of this study is to evaluate the effects of i.p. daily administration of compound 001 at 185 mg/kg and/or L-Glutamine (L-Gln) at 180 mg/Kg on hematological parameters and RBC sickling. L-Gln has received approval by the FDA for the treatment of sickle cell disease (SCD) patients in the United States as it has been shown that L-Gln administration reduces the severity and frequency of VOCs. Townes S/S mice on a 129/B6 mixed genetic background aged 8-12 weeks. The powder of compound 001 (185 mg/kg) was dissolved in vehicle (the solution is used at room temperature for maximum 1 day). The powder of L-Glutamine (180 mg/kg) was dissolved in vehicle (the solution is used at room temperature for maximum 1 day). In Townes S/S mice, mouse alpha- and beta-globin gene loci are deleted and replaced by human genes coding for the alpha- and beta-globin. When carrying two copies of the beta S allele, mice develop a human sickle disease phenotype with sickle-shaped red blood cells are seen in blood smears. Group description: • Group 1: Vehicle PBS (i.p.) • Group 2: Compound 001 (185 mg/kg) • Group 3 L-Gln (180 mg/kg) • Group 4: Compound 001 (185 mg/kg)+L-Gln (180 mg/kg) Mice were i.p treated with Compound 001, L-Gln or the combination of compound 001+L-Gln during all the experiment (D0 to D15) once per day. Last injection occurred 24 hours before sacrifice. Retro-orbital blood collection was performed at the inclusion and at D15. Ex-vivo blood collected were assessed for blood parameters and RBC sickling ex vivo under normoxia (20% Oz) and hypoxia (1% Oz for 0.5 hour).

[4] = test system: SS RBCs; assay: RBC sickling under hypoxia ex vivo, RBCs from treated SCD mice; details: Townes S/S mice; for effect on red blood cell sickling under hypoxia (conclusion): 185 mg/kg i.p. daily D0 to D15; for percentage of sickling cells at D0 / percentage of sickling cells after 15 days treatment: 185 mg/kg/d i.p., RBCs ex vivo 30 minutes hypoxia (1% Oz)
Description: as §1, §2, §3, §4, §5, §6, §7, §8
FIGS. 3, 4 and 5 show the ability of compounds 001 (FIG. 3), 010 (FIG. 4) and 011 (FIG. 5) to prevent sickling of SS RBCs at a 1% Oz. SS RBCs from treated mice and collected at D0, D5, D10 and D15 were submitted to hypoxia for 30 minutes in a hypoxic chamber (1% Oz). Percentage of sickling RBCs was then assessed for each time point with compounds 001, 010 and 011.

[5] = test system: Townes S/S mice; assay: Concentration of red blood cells in blood of SCD-model mice; details: for effect on concentration of RBC in blood: i.p. once per day D0 to D15 (compound 001 185 mg/kg, L-Gln 180 mg/kg), under normoxia and hypoxia, vs vehicle or L-Gln
Description: as §9

[6] = test system: Townes S/S mice; assay: Hematocrit percentage in blood of SCD-model mice; details: for effect on hematocrit percentage in blood: i.p. once per day D0 to D15 (compound 001 185 mg/kg, L-Gln 180 mg/kg), under normoxia and hypoxia, vs vehicle or L-Gln
Description: as §9, with “hour). […] III. CONCLUSION” for “hour).”

[7] = 185 mg/kg/d i.p., hypoxia (1% Oz for 0.5 hour) vs normoxia

Compound | percentage of reticulocytes after treatment ([1]; over the 15 days treatment) [%] | percentage of reticulocytes, starting value ([1]; value before the 15 days treatment) [%] | effect on proportion of circulating erythroid cells expressing fetal hemoglobin (conclusion) [2] | mean F-cells after treatment ([2]; 185 mg/kg/d i.p., over the 15 days treatment) [%] | mean F-cells, starting value ([2]; 185 mg/kg/d i.p., value before the 15 days treatment) | effect of hypoxia on hemoglobin in blood of treated mice [3, 7] | effect on hemoglobin concentration in blood [3] | effect on red blood cell sickling under hypoxia (conclusion) [4] | percentage of sickling cells at D0 [4] [%] | percentage of sickling cells after 15 days treatment [4] | effect of hypoxia on RBC in blood of treated mice [5, 7] | effect on concentration of RBC in blood [5] | effect of hypoxia on hematocrit percentage in blood of treated mice [6, 7] | effect on hematocrit percentage in blood [6]
NC(=O)c1ccc[n+]([C@@H]2O[C@H](COP(=O)([O-])O)[C@@H](O)[C@H]2O)c1 (stereo in doubt) [Compound 001, NMN] | 30 | 70 | increase the proportion of circulating erythroid cells expressing fetal hemoglobin | 8 | less than 5% | did not result in a decrease | significant increase | reduce red blood cell sickling under hypoxia | 40 | less than 10% | did not result in a decrease | significant increase | did not result in a decrease | significant increase
NC(=O)CC[C@H](N)C(=O)O [L-Gln, L-Glutamine, reference compound] |  |  |  |  |  |  | did not affect |  |  |  |  | did not affect |  | did not affect
α,α-diNMN [Compound 011] |  |  | increase the proportion of circulating erythroid cells expressing fetal hemoglobin |  |  |  |  | reduce red blood cell sickling under hypoxia | 31 | 20% |  |  |  | 
α,β-diNMN [Compound 010] |  |  | increase the proportion of circulating erythroid cells expressing fetal hemoglobin |  |  |  |  | reduce red blood cell sickling under hypoxia | 32 | less than 15% |  |  |  | 
